Reference: ChEMBL document CHEMBL1201862, “PubChem BioAssay data set” (2004)
Blank lines part the entries; values can stand above or below the molecule they belong to. The source made the active and inactive calls.

Key:
[1] = biological target: Transitional endoplasmic reticulum ATPase (Homo sapiens, UniProt P55072, C522A); experiment: C522A mutant p97 ATPase inhibitors, dose response, counter-screen for p97 inhibitor project, biochemical, luminescence (AID 1544)
[2] = biological target: Transitional endoplasmic reticulum ATPase (Homo sapiens, UniProt P55072); experiment: p97 ATPase inhibitors, dose response, biochemical (AID 1534)
Sequence of Transitional endoplasmic reticulum ATPase (Homo sapiens, UniProt P55072) (P55072 whole entry): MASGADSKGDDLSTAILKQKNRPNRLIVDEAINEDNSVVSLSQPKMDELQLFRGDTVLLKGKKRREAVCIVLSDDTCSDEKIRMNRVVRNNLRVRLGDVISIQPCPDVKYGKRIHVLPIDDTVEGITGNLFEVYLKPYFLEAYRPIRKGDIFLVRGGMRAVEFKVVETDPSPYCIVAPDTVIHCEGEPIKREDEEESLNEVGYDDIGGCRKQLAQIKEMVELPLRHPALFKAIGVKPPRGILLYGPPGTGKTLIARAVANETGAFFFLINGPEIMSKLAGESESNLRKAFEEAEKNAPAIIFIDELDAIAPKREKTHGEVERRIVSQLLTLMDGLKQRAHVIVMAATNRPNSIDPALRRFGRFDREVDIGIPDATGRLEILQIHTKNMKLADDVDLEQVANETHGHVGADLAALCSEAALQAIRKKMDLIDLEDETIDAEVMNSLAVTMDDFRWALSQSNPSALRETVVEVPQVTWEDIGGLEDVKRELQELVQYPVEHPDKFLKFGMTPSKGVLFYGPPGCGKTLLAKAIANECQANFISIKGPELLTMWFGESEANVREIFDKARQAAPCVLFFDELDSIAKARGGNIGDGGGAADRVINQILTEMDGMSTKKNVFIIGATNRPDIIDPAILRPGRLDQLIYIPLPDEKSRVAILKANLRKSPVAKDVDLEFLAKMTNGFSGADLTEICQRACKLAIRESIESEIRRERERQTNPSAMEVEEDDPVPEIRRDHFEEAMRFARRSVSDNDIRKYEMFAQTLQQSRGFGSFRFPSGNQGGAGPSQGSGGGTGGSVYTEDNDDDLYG

Caspase-3 = biological target: T1, Caspase-3 (Homo sapiens, UniProt P42574); format: functional;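 further: Dose-response selectivity test against caspase-3 for candidate inhibitors of sentrin-specific proteases (SENPs)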
T1 sequence (P42574 whole entry): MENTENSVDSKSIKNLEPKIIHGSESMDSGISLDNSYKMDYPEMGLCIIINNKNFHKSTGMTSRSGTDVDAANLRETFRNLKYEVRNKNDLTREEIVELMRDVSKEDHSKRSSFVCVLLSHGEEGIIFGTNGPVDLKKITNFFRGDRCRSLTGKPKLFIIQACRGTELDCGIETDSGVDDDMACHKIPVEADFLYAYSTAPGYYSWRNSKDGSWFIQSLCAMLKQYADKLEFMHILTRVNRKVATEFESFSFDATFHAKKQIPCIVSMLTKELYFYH

[3] = biological target: T2, Sentrin-specific protease 7 (Homo sapiens, UniProt Q9BQF6); format: functional;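 further: Luminescence-based dose-response confirmation of ultra-high-throughput screening hits, measuring inhibition of SENP7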
T2 sequence (Q9BQF6 whole entry): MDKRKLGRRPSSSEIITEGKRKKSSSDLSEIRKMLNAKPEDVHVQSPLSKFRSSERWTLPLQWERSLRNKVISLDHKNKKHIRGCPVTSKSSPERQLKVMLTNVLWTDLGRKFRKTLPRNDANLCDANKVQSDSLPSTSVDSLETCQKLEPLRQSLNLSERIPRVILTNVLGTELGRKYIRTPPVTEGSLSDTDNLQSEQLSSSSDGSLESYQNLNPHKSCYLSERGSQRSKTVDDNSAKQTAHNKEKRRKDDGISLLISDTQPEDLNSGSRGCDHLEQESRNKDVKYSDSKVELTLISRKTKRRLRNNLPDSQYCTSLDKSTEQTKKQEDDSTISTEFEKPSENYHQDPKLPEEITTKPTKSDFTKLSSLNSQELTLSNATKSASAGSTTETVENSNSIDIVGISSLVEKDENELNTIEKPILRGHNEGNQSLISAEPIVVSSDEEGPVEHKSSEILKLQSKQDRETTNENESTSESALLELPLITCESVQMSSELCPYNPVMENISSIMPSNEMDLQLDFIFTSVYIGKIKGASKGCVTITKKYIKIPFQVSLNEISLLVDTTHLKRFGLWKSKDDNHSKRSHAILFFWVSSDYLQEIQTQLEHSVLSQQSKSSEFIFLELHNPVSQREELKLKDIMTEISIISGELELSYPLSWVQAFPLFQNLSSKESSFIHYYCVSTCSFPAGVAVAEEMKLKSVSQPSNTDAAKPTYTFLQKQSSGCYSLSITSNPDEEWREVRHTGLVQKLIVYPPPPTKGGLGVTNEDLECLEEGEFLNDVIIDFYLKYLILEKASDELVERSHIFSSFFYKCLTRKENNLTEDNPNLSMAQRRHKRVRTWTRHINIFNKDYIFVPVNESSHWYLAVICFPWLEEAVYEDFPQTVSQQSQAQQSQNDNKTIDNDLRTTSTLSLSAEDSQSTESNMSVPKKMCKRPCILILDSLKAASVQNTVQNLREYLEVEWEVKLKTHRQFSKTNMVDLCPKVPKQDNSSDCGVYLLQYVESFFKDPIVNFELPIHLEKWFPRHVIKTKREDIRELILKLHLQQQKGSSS

[4] = biological target: T3, Sentrin-specific protease 8 (Homo sapiens, UniProt Q96LD8); format: functional;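 further: luminescence read-out of SENP8 inhibition, dose-response confirmation following an ultra-high-throughput screen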
T3 sequence (Q96LD8 whole entry): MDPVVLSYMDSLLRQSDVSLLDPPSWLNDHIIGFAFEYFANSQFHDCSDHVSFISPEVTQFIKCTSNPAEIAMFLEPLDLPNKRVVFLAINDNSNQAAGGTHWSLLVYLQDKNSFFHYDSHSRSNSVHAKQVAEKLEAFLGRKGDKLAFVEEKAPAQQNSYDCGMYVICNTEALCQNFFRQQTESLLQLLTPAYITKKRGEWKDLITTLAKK

[5] = biological target: T4, Tyrosyl-DNA phosphodiesterase 2 (Homo sapiens, UniProt O95551); experiment: human TDP2 enzyme inhibitors, dose response, biochemical, epi absorbance, IC50 (AID 743297)
T4 sequence (O95551 whole entry): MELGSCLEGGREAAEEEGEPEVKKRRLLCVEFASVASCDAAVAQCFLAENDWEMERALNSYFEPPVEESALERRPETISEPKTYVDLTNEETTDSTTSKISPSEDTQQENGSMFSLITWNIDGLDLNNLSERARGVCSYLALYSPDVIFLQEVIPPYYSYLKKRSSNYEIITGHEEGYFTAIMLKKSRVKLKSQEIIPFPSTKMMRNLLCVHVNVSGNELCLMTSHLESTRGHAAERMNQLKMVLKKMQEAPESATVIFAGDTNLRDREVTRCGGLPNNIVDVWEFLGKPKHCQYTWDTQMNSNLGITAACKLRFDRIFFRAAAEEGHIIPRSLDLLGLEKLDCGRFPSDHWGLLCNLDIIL

[6] = inhibitors of intracellular T. cruzi replication, confirmation, NIH3T3 host cells, beta-gal luminescence (AID 2044); format: functional, cell-based;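 further: intracellular parasites grown in NIH/3T3 mouse fibroblasts as host cells; luminescent beta-galactosidase reporter signal from transgenic T. cruzi replicating inside host cells; inhibitors lower the luminescence signal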
[7] = cytotoxicity toward NIH3T3 fibroblasts, dose response, counter-screen, cell-based, ATP luminescence, mouse fibroblasts (AID 2010); format: functional;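 further: cells exposed to compound for about 90 hours before reading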
[8] = tested on: Streptococcus sp. 'group A'; experiment: growth inhibition of control SK(-) GAS strain, dose response, counter-screen for streptokinase expression inhibitor project, luminescence, kanamycin, BacTiterGlo, confirmation (AID 1900); format: functional, organism-based
Streptococcus = experiment: Group A Streptococcus viability loss, dose response, counter-screen for streptokinase expression inhibitor project, luminescence, BacTiterGlo (AID 1915); format: functional, organism-based;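 further: potency for reduction of bacterial viability or growth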
INS1 = experiment: beta cell apoptosis inhibitors, cytokine rescue, dose response, luminescence, retest (AID 449756); format: functional, cell-based; conditions: Rattus norvegicus;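 further: cell death triggered by IL-1 beta plus TNF-alpha plus IFN-gamma mixture; protective hits raise ATP signal compared with cytokine alone wells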
BJ [9] = experiment: cytotoxicity toward BJ-TERT fibroblasts, dose response, cell-based, RAS-independent, luminescence (AID 1933); format: functional; conditions: Homo sapiens
BJ [10] = experiment: cells; format: functional, cell-based; conditions: Homo sapiens
BJ [11] = experiment: cytotoxicity toward BJ-TERT-LT-ST fibroblasts, dose response, cell-based, RAS-independent, luminescence (AID 1935); format: functional; conditions: Homo sapiens;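 further: BJ fibroblasts immortalized with TERT plus LT and ST oncogenes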

Sequence of Transitional endoplasmic reticulum ATPase (Homo sapiens, UniProt P55072, C522A) (P55072 2-806 C522A limits assumed): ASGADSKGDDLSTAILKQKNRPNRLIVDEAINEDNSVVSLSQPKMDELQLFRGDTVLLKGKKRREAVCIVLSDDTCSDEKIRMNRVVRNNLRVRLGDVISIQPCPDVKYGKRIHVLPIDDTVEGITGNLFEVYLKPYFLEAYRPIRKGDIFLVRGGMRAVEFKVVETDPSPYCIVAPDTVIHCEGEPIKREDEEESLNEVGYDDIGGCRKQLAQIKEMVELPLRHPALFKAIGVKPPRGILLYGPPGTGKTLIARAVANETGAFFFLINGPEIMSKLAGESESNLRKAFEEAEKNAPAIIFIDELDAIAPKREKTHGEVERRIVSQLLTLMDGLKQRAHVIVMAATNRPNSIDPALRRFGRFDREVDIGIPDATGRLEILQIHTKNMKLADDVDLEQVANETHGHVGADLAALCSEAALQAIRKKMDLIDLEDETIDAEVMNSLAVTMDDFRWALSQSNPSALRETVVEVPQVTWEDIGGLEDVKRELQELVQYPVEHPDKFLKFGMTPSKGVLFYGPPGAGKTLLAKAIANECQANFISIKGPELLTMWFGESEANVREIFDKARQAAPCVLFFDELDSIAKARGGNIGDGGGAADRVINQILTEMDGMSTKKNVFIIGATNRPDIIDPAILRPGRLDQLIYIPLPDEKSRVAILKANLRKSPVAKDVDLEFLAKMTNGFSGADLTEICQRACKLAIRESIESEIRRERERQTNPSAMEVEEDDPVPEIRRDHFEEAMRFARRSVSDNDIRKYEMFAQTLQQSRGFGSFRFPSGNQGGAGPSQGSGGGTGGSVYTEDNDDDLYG

- IC50 [1]: > 50 µM (not active)
- IC50 [2]: > 50 µM (not active)
- IC50 (Caspase-3): 12.2 µM (active)
- IC50 [3]: 2.96 µM (active)
- IC50 [5]: > 4.76 µM (active)
Structure (SMILES): CCCCn1c(NC(=O)c2ccccc2Cl)c(C#N)c2nc3ccccc3nc21
- IC50 [4]: 1.99 µM (active)

Structure (SMILES): O=C1C=C(N(CCO)Cc2ccccc2)c2ccccc2C1=O
- EC50 [6]: > 30 µM (not active)
- EC50 [7]: 5.31 µM (active)

Structure (SMILES): CCc1ccc(OCC(=O)N/N=C2\CC(=O)c3ccccc32)cc1
- IC50 (Caspase-3): 3.7 µM (active)
- IC50 [3]: > 100 µM (inactive)
- IC50 [4]: 8.49 µM (active)

Structure (SMILES): CCOC(=O)C1=C(c2ccc(OC)cc2)C(=O)c2ccccc2C1=O
- EC50 [8]: 1.51 µM (active)
- EC50 (Streptococcus): 6.2 µM (active)
- AC50 (INS1): 2.2 µM (active)

Structure (SMILES): CCC(=O)OCCNc1cc(Sc2nccn2C)c2nonc2c1[N+](=O)[O-]
- EC50 [6]: 1.97 µM (active)
- EC50 [7]: 3.62 µM (active)

Structure (SMILES): O=C1C(=O)c2ccccc2-c2ccccc21 [9,10-PHENANTHRENEQUINONE]
- EC50 [8]: 1.33 µM (active)
- EC50 (BJ [9]): 1.96 µM (active)
- IC50 [1]: > 50 µM (not active)
- EC50 (BJ [10]): 5.99 µM (inconclusive)
- EC50 (BJ [11]): 1.63 µM (inconclusive)
- IC50 [2]: > 50 µM (not active)
- EC50 (Streptococcus): 2.3 µM (active)
- AC50 (INS1): 1.01 µM (active)
- IC50 [5]: 1.91 µM (active)

Structure (SMILES): COCCCNC(=O)c1ccc2c3c(onc13)-c1ccccc1C2=O
- EC50 (BJ [9]): 8.03 µM (inconclusive)
- EC50 (BJ [10]): > 150 µM (not active)
- EC50 (BJ [11]): 7.47 µM (active)
